Read-outs that look alike come from different tables or passages of the source.
Experiments:
[1] = test system: Phytophthora infestans; format: in vivo; conditions: individual active compound, control 90% infection
[2] = test system: Plasmopara viticola; assay: Activity against peronospora of vines caused by Plasmopara viticola (protective spray, potted vines); format: in vivo, Plasmopara viticola on vines cultivar Müller-Thurgau; conditions: individual active compound, control 88% infection
Protocol: The active compounds, separately or together, were prepared as a stock solution with 0.25% by weight of active compound in acetone or DMSO. 1% by weight of the emulsifier Uniperol® EL (wetting agent having emulsifying and dispersing action based on ethoxylated alkylphenols) was added to this solution, and the solution was diluted with water to the desired concentration.
Evaluation is carried out by determining the infected leaf areas as a percentage. These percentages are converted into efficacies. The efficacy (W) is calculated as follows using Abbot's formula: W=(1−α/β)·100 α corresponds to the fungal infection of the treated plants in % and β corresponds to the fungal infection of the untreated (control) plants in % An efficacy of 0 means that the infection level of the treated plants corresponds to that of the untreated control plants; an efficacy of 100 means that the treated plants were not infected. The expected efficacies of the mixtures of the active compounds are determined using Colby's formula [R. S. Colby, Weeds 15, 20-22 (1967)] and compared with the observed efficacies. Colby's formula: E=x+y−x·y/100 […]
E expected efficacy, expressed as a % of the untreated control, when using the mixture of the active compounds A and B at the concentrations a and b x efficacy, expressed as a % of the untreated control, when using active compound A at a concentration a y efficacy, expressed as a % of the untreated control, when using active compound B at a concentration b Leaves of potted vines of the cultivar “Müller-Thurgau” were sprayed to runoff point with an aqueous suspension having the concentration of active compounds stated below. The next day, the undersides of the leaves were inoculated with an aqueous zoospore suspension of Plasmopara viticola. The vines were then initially placed in a water-vapor-saturated chamber at 24° C. for 48 hours and then in a greenhouse at 20-30° C. for 5 days. After this period of time, the plants were again placed in a moist chamber for 16 hours to promote sporangiophore eruption. The extent to which the infection had developed on the undersides of the leaves was then determined visually.

Structure (SMILES)	Efficacy in % of the untreated control ([1]; 0.75 ppm in spray liquid)	Efficacy in % of the untreated control ([1]; 1.5 ppm in spray liquid)	Efficacy in % of the untreated control ([1]; 3 ppm in spray liquid)	Efficacy in % of the untreated control ([1]; 6 ppm in spray liquid)	Efficacy in % of the untreated control ([2]; 3 ppm in spray liquor)	Efficacy in % of the untreated control ([2]; 6 ppm in spray liquor)	Efficacy in % of the untreated control ([1]; 3.75 ppm in spray liquid)	Efficacy in % of the untreated control ([1]; 7.5 ppm in spray liquid)	Efficacy in % of the untreated control ([1]; 15 ppm in spray liquid)	Efficacy in % of the untreated control ([1]; 30 ppm in spray liquid)	Efficacy in % of the untreated control ([2]; 3.75 ppm in spray liquor)	Efficacy in % of the untreated control ([2]; 7.5 ppm in spray liquor)
Cc1ccc(-c2c(Cl)nc(C#N)n2S(=O)(=O)N(C)C)cc1 [IIa, cyazofamid]	56%	67%	78%	89%	72%	83%	–	–	–	–	–	–
CC1CCN(c2c(-c3c(F)cc(F)cc3F)c(Cl)nc3ncnn23)CC1 [I, 5-chloro-7-(4-methyl-pipiridin-1-yl)-6-(2,4,6-trifluorophenyl)-[1,2,4]triazolo[1,5-a]pyrimidine]	–	–	–	–	–	–	0%	0%	0%	33%	9%	32%

From patent US7282503B2 (priority 2002, dated 2007)
